Where “and” joins values, the source holds several entries; their conditions need not be identical. Identical values can stand only once.
Legend:
Assay type in all cases: in vivo, human
serum uric acid = assay: Serum uric acid in male and female patients with hyperuricemia and gout, 7 days (Example 7)
Protocol: (§1) The study lasted 7 days, and patients were treated with placebo or 50 mg of enantiomerically-pure (S)-tofisopam once a day (qd) on Day 1 and Day 7 of the study, and with placebo or 50 mg of enantiomerically-pure (S)-tofisopam three times a day (tid) for Days 2 to 6 of the study. […] In Table 6, days indicated with a minus sign (e.g. D-1) indicate the time point corresponding to that number of days before treatment was initiated. For example, D-14 is the time point fourteen days before treatment was initiated.

serum creatinine = assay: Serum creatinine in male and female patients with hyperuricemia and gout, 7 days (Example 8)
Protocol: as §1, with “7,” for “6,”

[1] = test system: urinary creatinine excretion; assay: 24 h urinary creatinine excretion in patients with hyperuricemia and gout (Example 9); details: 50 mg qd Day 1 and 7, tid Days 2 to 6
Protocol: as §1, with “8,” for “6,”

[2] = test system: fractional excretion of urate; assay: Fractional excretion of urate in patients with hyperuricemia and gout (Example 9); details: 50 mg qd Day 1 and 7, tid Days 2 to 6
Protocol: as §1, with “8,” for “6,”

clearance creatinine = assay: Creatinine clearance in patients with hyperuricemia and gout (Example 9); details: 50 mg qd Day 1 and 7, tid Days 2 to 6
Protocol: as §1, with “8,” for “6,”

[3] = 50 mg qd Day 1 and Day 7, tid Days 2 to 6, Day 6 to Day 7: Day 6 + Day 7, hyperuricemia and gout
[4] = 50 mg qd Day 1 and Day 7, tid Days 2 to 6, Day 7 (Day 1 0 h = 0.0), hyperuricemia and gout
[5] = 50 mg qd Day 1 and Day 7, tid Days 2 to 6, Day 8 (after treatment stopped), hyperuricemia and gout
[6] = 50 mg qd Day 1 and Day 7, tid Days 2 to 6, Day 15 (after treatment stopped), hyperuricemia and gout
[7] = 50 mg qd Day 1 and Day 7, tid Days 2 to 6, male and female patients with hyperuricemia and gout
[8] = after 7 days of 50 mg treatment, hyperuricemia and gout
[9] = 50 mg qd Day 1 and Day 7, tid Days 2 to 6, Day 1 6 h (Day 1 0 h = 0.0), hyperuricemia and gout
[10] = 50 mg qd Day 1 and Day 7, tid Days 2 to 6, Day 1 to Day 2: Day 1 0 h + Day 2, hyperuricemia and gout
[11] = 50 mg qd Day 1 and Day 7, tid Days 2 to 6, Day 2 (Day 1 0 h = 0.0), hyperuricemia and gout
[12] = 50 mg qd Day 1 and Day 7, tid Days 2 to 6, Day 3 (Day 1 0 h = 0.0), hyperuricemia and gout
[13] = 50 mg qd Day 1 and Day 7, tid Days 2 to 6, Day 4 (Day 1 0 h = 0.0), hyperuricemia and gout
[14] = 50 mg qd Day 1 and Day 7, tid Days 2 to 6, Day 5 (Day 1 0 h = 0.0), hyperuricemia and gout
[15] = 50 mg qd Day 1 and Day 7, tid Days 2 to 6, Day 6 (Day 1 0 h = 0.0), hyperuricemia and gout
[16] = individual patient (P#), [D 1 to D 2] from [D −2 to D −1]
[17] = individual patient (P#), [D 6 to D 7] from [D 1 to D 2]
[18] = mean (M) of patients, [D 1 to D 2] from [D −2 to D −1]
[19] = mean (M) of patients, [D 6 to D 7] from [D 1 to D 2]

Compound: CC[C@@H]1C(C)=NN=C(c2ccc(OC)c(OC)c2)c2cc(OC)c(OC)cc21 [(S)-tofisopam]
- Percent change in serum uric acid, individual patients (P# 1-13) (serum uric acid; [3]): −44.0% and −56.2% and −36.4% and −56.0% and −46.9% and −31.1% and −53.2% and −34.5% and −40.8%
- Percent change in serum uric acid, mean (M) of 13 patients (serum uric acid; [3]): −45.1%
- Percent change in serum uric acid, individual patients (P# 1-13) (serum uric acid; [4]): −48.0% (2×) and −58.9% and −41.4% and −47.9% and −31.1% and −55.7% and −40.2% and −42.3%
- Percent change in serum uric acid, mean (M) of 13 patients (serum uric acid; [4]): −47.1%
- Percent change in serum uric acid, individual patients (P# 1-13) (serum uric acid; [5]): −36.0% (2×) and −46.6% and −32.9% and −41.7% and −24.3% and −45.6% and −30.9% and −26.8%
- Percent change in serum uric acid, mean (M) of 13 patients (serum uric acid; [5]): −35.5%
- Percent change in serum uric acid, individual patients (P# 1-13) (serum uric acid; [6]): 36.0% and 17.8% and 25.7% and −13.3% and 1.0% and 39.2% and 30.4% and 10.3% and 26.8%
- Percent change in serum uric acid, mean (M) of 13 patients (serum uric acid; [6]): 18.9%
- Effect on serum uric acid levels (serum uric acid; [7]): decreases
- Serum uric acid levels once treatment was stopped after 7 days (serum uric acid; [8]): began to increase again
- Percent change in serum creatinine, individual patients (P# 1-13) (serum creatinine; [9]): 10.1% and 0.9% and 2.9% and 0.0% (2×) and 1.8% and 5.7% and 4.8% and 10.3%
- Percent change in serum creatinine, mean (M) of 13 patients (serum creatinine; [9]): 2.5%
- Percent change in serum creatinine, individual patients (P# 1-13) (serum creatinine; [10]): 4.4% and 0.9% and 0.5% (2×) and −1.0% and 2.3% and 0.8% and −1.3% and 6.7%
- Percent change in serum creatinine, mean (M) of 13 patients (serum creatinine; [10]): 1.1%
- Percent change in serum creatinine, individual patients (P# 1-13) (serum creatinine; [11]): 8.9% and 1.9% and 1.0% and −2.0% and 4.5% and 0.9% and 1.6% and −2.6% and 13.3%
- Percent change in serum creatinine, mean (M) of 13 patients (serum creatinine; [11]): 2.1%
- Percent change in serum creatinine, individual patients (P# 1-13) (serum creatinine; [12]): 7.6% and 3.7% and 13.6% and 2.0% and 16.2% and 10.4% and 4.8% and 17.9% and 24.0% and 14.9%
- Percent change in serum creatinine, mean (M) of 13 patients (serum creatinine; [12]): 10.1%
- Percent change in serum creatinine, individual patients (P# 1-13) (serum creatinine; [13]): 3.8% and −5.6% and 4.9% and −2.0% and 21.6% and −2.8% and 3.2% and 14.1% and 18.7%
- Percent change in serum creatinine, mean (M) of 13 patients (serum creatinine; [13]): 6.1%
- Percent change in serum creatinine, individual patients (P# 1-13) (serum creatinine; [14]): −5.1% and −3.7% and 8.7% and 9.8% and 23.4% and 0.9% and 14.3% and 7.7% and 24.0%
- Percent change in serum creatinine, mean (M) of 13 patients (serum creatinine; [14]): 7.2%
- Percent change in serum creatinine, individual patients (P# 1-13) (serum creatinine; [15]): 17.7% and 7.4% and 2.9% and 4.9% and 9.9% and 0.0% and 6.3% and 7.7% and 18.7%
- Percent change in serum creatinine, mean (M) of 13 patients (serum creatinine; [15]): 8.0%
- Percent change in serum creatinine, individual patients (P# 1-13) (serum creatinine; [3]): 15.2% and 2.3% and 0.5% and 1.0% and 10.4% and 5.7% and 7.1% and 5.1% and 12.0%
- Percent change in serum creatinine, mean (M) of 13 patients (serum creatinine; [3]): 5.8%
- Percent change in serum creatinine, individual patients (P# 1-13) (serum creatinine; [4]): 12.7% and −2.8% and −1.9% and −2.9% and 10.8% and 11.3% and 7.9% and 2.6% and 5.3%
- Percent change in serum creatinine, mean (M) of 13 patients (serum creatinine; [4]): 3.7%
- Percent change in serum creatinine, individual patients (P# 1-13) (serum creatinine; [5]): 10.1% and −7.4% and −8.7% and −6.9% and 0.9% and −2.8% and 12.7% and 12.8% and 24.0%
- Percent change in serum creatinine, mean (M) of 13 patients (serum creatinine; [5]): 3.8%
- Percent change in serum creatinine, individual patients (P# 1-13) (serum creatinine; [6]): 27.8% and 9.3% and 19.4% and 4.9% and 17.1% and 23.6% and 25.4% and −2.6% and 46.7%
- Percent change in serum creatinine, mean (M) of 13 patients (serum creatinine; [6]): 13.6%
- Effect on serum creatinine levels (serum creatinine; [7]): does not modify
- Serum creatinine levels once treatment was stopped after 7 days (serum creatinine; [8]): did not substantially change
- Percent change in Uc (mg/24 h), amount of creatinine excreted into the urine over 24 hours [1, 16]: 47.6% and 5.5% and −22.9% and −16.8% and 11.5% and −8.7% and −5.2% and −8.1% and −15.0% and −3.5% and −11.0% and 3.8%
- Percent change in Uc (mg/dL), concentration of creatinine in 24 hour urine [1, 16]: 71.2% and −14.5% and 14.4% and −14.1% and −44.2% and −5.6% and 56.8% and −21.0% and −33.0% and 5.4% and −35.5% and 25.6%
- Percent change in Uc (mg/24 h), amount of creatinine excreted into the urine over 24 hours [1, 17]: −14.5% and 19.2% and 15.4% and 10.8% and 7.9% and 5.9% and 5.6% and 21.6% and 5.8% and −4.8% and −10.8%
- Percent change in Uc (mg/dL), concentration of creatinine in 24 hour urine [1, 17]: −31.0% and 0.2% and −33.7% and −21.3% and −15.2% and −32.1% and −38.3% and −24.0% and −11.2% and −6.0% and −30.1%
- Percent change in Uc (mg/24 h), amount of creatinine excreted into the urine over 24 hours [1, 18]: −1.9%
- Percent change in Uc (mg/dL), concentration of creatinine in 24 hour urine [1, 18]: 0.5%
- Percent change in Uc (mg/24 h), amount of creatinine excreted into the urine over 24 hours [1, 19]: 5.6%
- Percent change in Uc (mg/dL), concentration of creatinine in 24 hour urine [1, 19]: −22.1%
- Percent change in FEu (fractional excretion uric acid) [2, 16]: −14.9% and 11.7% and −0.2% and 41.9% and −54.2% and 137.8% and 62.9% and 162.7% and 51.0% and −29.6% and 19.5% and 40.4%
- Percent change in FEu (fractional excretion uric acid) [2, 17]: 139.3% and 78.5% and 160.4% and 60.9% and 100.7% and 62.6% and 17.3% and 33.2% and 61.6% and 57.5% and 125.9%
- Percent change in FEu (fractional excretion uric acid) [2, 18]: 35.8%
- Percent change in FEu (fractional excretion uric acid) [2, 19]: 81.6%
- Percent change in CLc (clearance creatinine) (clearance creatinine; [16]): 35.1% and 2.5% and −24.4% and −14.2% and 16.2% and −22.4% and 0.7% and −4.1% and −2.7% and −1.3% and −11.8% and 11.2%
- Percent change in CLc (clearance creatinine) (clearance creatinine; [17]): −12.7% and 15.2% and 21.1% and 14.0% and 8.9% and 0.0% (2×) and −3.9% and 14.3% and 0.7% and −23.7%
- Percent change in CLc (clearance creatinine) (clearance creatinine; [18]): −1.3%
- Percent change in CLc (clearance creatinine) (clearance creatinine; [19]): 3.1%

— patent US9408852B2, “Method of lowering serum uric acid levels with (S)-tofisopam” (PHARMOS CORPORATION, priority 2011, dated 2016)
